Source: US20090209460A1, “COMPOSITIONS AND METHODS FOR TREATING OBESITY AND RELATED METABOLIC DISORDERS” (Amylin Pharmaceuticals, Inc., priority 2005, published 2009)
Each block holds one molecule with its values, some of them ahead of it. Non-standard residues stand in square brackets, D forms with d. Residues, ends and D or L forms follow the SMILES beside them. No end group written: not given here. beta turn mimic B = not defined here

Tests used:
[1] = system: NIH/Swiss mice; assay: acute food intake assay, lean overnight-fasted NIH/Swiss mice, intraperitoneal injection; type: in vivo, mouse; conditions: for reduction of food intake: administered systemically (i.p. to mice), dose and time not stated; for FI (60′, 200) / ED50 at t = 60: food intake; for FI (60′, 200): % change relative to control, 60 min; for Food Intake Inhibition: mouse assay, dose of 200 mg/kg, measured at 60 minutes
Experimental: The effect of NMX Peptides, FNX Peptides or NMX Receptor agonists on food intake when systemically administered was investigated using an acute food intake assay. This assay measured food consumption in lean subjects. Lean, group-housed, overnight-fasted NIH/Swiss mice. All in vivo tests were performed with peripheral injections of peptide. […] The dose-response data are presented herein. The protocol is described below. Female NIH/Swiss mice (8-24 weeks old) were group housed with a 12:12 hour light:dark cycle, with lights on at 0300. Water and a standard pelleted mouse chow diet are available ad libitum, except as noted. Animals are fasted starting at approximately 1530 hrs, 1 day prior to experiment. At time=0 min, all animals are given an intraperitoneal injection of vehicle or polypeptide in a volume of 200 uL/mouse and immediately given a pre-weighed amount (10-15 g) of the standard chow. Food is removed and weighed at 30, 60, and 120 minutes to determine the amount of food consumed. The effects of treatment on food intake are expressed as % change relative to control.

[2] = body weight and food intake in mice with diet induced obesity (mouse DIO), osmotic pump; type: in vivo; conditions: for d 14 BWt loss: day 14
Experimental: The effect of FN38 and related compounds on body weight and food intake in obese subjects was investigated. Mice having diet induced obesity (DIO) were used. All in vivo tests were performed with peripheral injections of peptide. […] 4-week-old male C57BL/6 mice were group housed with water and a standard pelleted mouse chow diet available ad libitum, except as noted, and were maintained on a on a high fat diet (58% kcal from fat) for 4 weeks prior to the experiment. At the end of fattening period, osmotic pumps were implanted interscapularly under anesthesia. Mice received pumps continuously delivering vehicle (50% DMSO in water or saline) or polypeptide at the dose indicated. Food intake and body weight measurements were obtained weekly.

[3] = brush border membrane (BBM) stability assay; type: in vitro ADME, human; conditions: for remaining at 5 h: brush border membrane extract (e.g. kidney), percent compound remaining after a 5 hour incubation, human brush border membrane assay, read-out: hBBM
Experimental: Some exemplary NMX Peptides and FNX Peptides were tested for stability in a brush border membrane (BBM) assay as described herein. To determine the enzymatic stability of peptide hormones peptides are incubated with a preparation of human brush border membranes extract (e.g., kidney), and the stability of the peptide is determined by measuring concentration of the intact peptide at specific intervals. The brush border membrane extract contains dipeptidyl peptidase IV (DPP-IV), neutral endopeptidases, peptidyl-dipeptidase A, carboxypeptidases and aminopeptidases. These are the primary enzymes that degrade peptides in vivo and are found in the kidneys, liver, lungs and pancreas. Resistance against these human proteases would increase peptide half-life. In the BBM assay test peptide was subjected to digestion over a period of five (5) hours with human brush border membrane extracts, e.g. kidney, at 37° C. At desired timepoints digestion was stopped by addition of quench solution, typically 50% ACN, 1% FA. After centrifugation to remove membrane debris, supernatant was subjected to mass spectrometry using a selected ion scan for the intact molecule of interest. Values are expressed as a percent of stable. A value of at least 80 or greater is regarded as an extremely stable molecule. A value of at least 70 or greater is a molecule with significant stability.

[4] = system: mice with diet induced obesity (mouse DIO); assay: cumulative food intake in mouse DIO after IP injection (FIGS. 6 and 7); type: in vivo; conditions: injected IP at t=0; measured at 30, 60, 120 and 180 min
Experimental: The activities of the following compounds are shown: A, [MimicB36] FN38; B, [His37] FN38; C,
[His35] FN38; D, [Phe33] FN38; E, [Val33] FN38; F, Des-(Ser6,Lys7,Thr8,Gln9) FN38; G, Des-Val16,Val17-FN38; H, [Phe31] FN38; I, Des-(Val16,Val17,Phe24,Ala25,Ser26,Gln27) FN38; J, Des-(Phe1,Leu2,Phe3,His4)FN38; and K, Des-(Phe24,Ala25,Ser26,Gln27)-FN38. […] Points represent mean±sd of n=4 cages (3 mice/cage). Peptide was injected IP at t=0. Food was introduced immediately after injection and amount consumed measured at t=30, 60, 120, and 180 min. In the figure, * p<0.05 vs. vehicle control; ANOVA, Dunnett's test.

Molecule: CC[C@H](C)[C@H](NC(=O)[C@@H](NC(=O)CNC(=O)CNC(=O)[C@@H]1CCCN1C(=O)[C@@H](NC(=O)[C@H](CCC(N)=O)NC(=O)[C@@H](NC(=O)[C@H](CCC(=O)O)NC(=O)[C@H](CCC(=O)O)NC(=O)[C@H](CC(=O)O)NC(=O)[C@@H](N)CO)C(C)C)C(C)C)C(C)C)C(=O)N[C@@H](CO)C(=O)N[C@@H](CC(N)=O)C(=O)NCC(=O)N[C@@H](Cc1ccc(O)cc1)C(=O)N[C@@H](Cc1ccccc1)C(=O)N[C@@H](CC(C)C)C(=O)N[C@@H](Cc1ccccc1)C(=O)N[C@@H](CCCNC(=N)N)C(=O)N1CCC[C@H]1C(=O)N[C@@H](CCCNC(=N)N)C(=O)N[C@@H](CC(N)=O)C(N)=O [Compound 163452, reference compound] (H-SDEEVQVPGGVISNGYFLFRPRN-NH2; N-terminus assumed)
- reduction of food intake [1]: up to 95%
- FI (60′, 200) [1]: −88%
- ED50 at t = 60 [1]: 0.022 mg/kg
- ED50 for effect on food intake ([1]; over 30 min, i.p., mice): 9.0 nmol/kg
- body weight gain and food intake in the DIO assay ([2]; 75 nmol/kg/day): decreased body weight gain and food intake
- long acting effect in mouse DIO ([2]; mouse DIO): did not have a long acting effect
- d 14 BWt loss ([2]; mouse DIO): 1.5%

Molecule: CC[C@H](C)[C@H](NC(=O)[C@@H](NC(=O)CNC(=O)CNC(=O)[C@@H]1CCCN1C(=O)[C@@H](NC(=O)[C@H](CCC(N)=O)NC(=O)[C@@H](NC(=O)[C@H](CCC(=O)O)NC(=O)[C@H](CCC(=O)O)NC(=O)[C@H](CC(=O)O)NC(=O)[C@H](CO)NC(=O)[C@H](CC(N)=O)NC(=O)[C@H](CO)NC(=O)[C@H](CCCCN)NC(=O)CNC(=O)[C@H](CC(C)C)NC(=O)[C@H](CCCCN)NC(=O)[C@H](CCC(N)=O)NC(=O)[C@@H](NC(=O)[C@H](CCCCN)NC(=O)[C@H](CO)NC(=O)[C@H](Cc1ccc(O)cc1)NC(=O)[C@H](Cc1c[nH]cn1)NC(=O)[C@H](Cc1ccccc1)NC(=O)[C@H](CC(C)C)NC(=O)[C@@H](N)Cc1ccccc1)[C@@H](C)O)C(C)C)C(C)C)C(C)C)C(=O)N[C@@H](CO)C(=O)N[C@@H](CC(N)=O)C(=O)NCC(=O)N[C@@H](Cc1ccc(O)cc1)C(=O)N[C@@H](Cc1ccccc1)C(=O)N[C@@H](CC(C)C)C(=O)N[C@@H](Cc1ccccc1)C(=O)N[C@@H](CCCNC(=N)N)C(=O)N1CCC[C@H]1C(=O)N[C@@H](CCCNC(=N)N)C(=O)N[C@@H](CC(N)=O)C(N)=O [Compound 165063] (H-FLFHYSKTQKLGKSNSDEEVQVPGGVISNGYFLFRPRN-NH2; N-terminus assumed)
- reduction of food intake [1]: at least 89%
- FI (60′, 200) [1]: −88%
- ED50 at t = 60 [1]: 6 nmol/kg
- Food Intake Inhibition [1]: −88%
- d 7 BWt loss ([2]; mouse DIO, day 7): 5.1%
- d 14 BWt loss ([2]; mouse DIO): 8.6%
- remaining at 5 h [3]: 73%
- BBM ([3]; percent of stable, human brush border membrane extracts, five hours, 37° C.): 73%

Molecule: CC(C)C[C@H](NC(=O)[C@H](CCCCN)NC(=O)[C@H](CCC(N)=O)NC(=O)[C@@H](NC(=O)[C@H](CCCCN)NC(=O)[C@H](CO)NC(=O)[C@H](Cc1ccc(O)cc1)NC(=O)[C@H](Cc1c[nH]cn1)NC(=O)[C@H](Cc1ccccc1)NC(=O)[C@H](CC(C)C)NC(=O)[C@@H](N)Cc1ccccc1)[C@@H](C)O)C(=O)NCC(=O)N[C@@H](CCCCN)C(=O)N[C@@H](CO)C(=O)N[C@@H](CC(N)=O)C(=O)N[C@H](C(=O)N[C@H](C(=O)N[C@@H](CCC(=O)O)C(=O)N[C@@H](CCC(=O)O)C(=O)N[C@@H](CC(C)C)C(=O)N[C@@H](CCC(N)=O)C(=O)N[C@@H](CO)C(=O)N1CCC[C@H]1C(=O)N[C@@H](Cc1ccccc1)C(=O)N[C@@H](C)C(=O)N[C@@H](CO)C(=O)N[C@@H](CCC(N)=O)C(=O)N[C@@H](CO)C(=O)N[C@@H](CCCNC(=N)N)C(=O)NCC(=O)N[C@@H](Cc1ccc(O)cc1)C(=O)N[C@@H](Cc1ccccc1)C(=O)N[C@@H](CC(C)C)C(=O)N[C@@H](Cc1ccccc1)C(=O)N[C@@H](CCCNC(=N)N)C(=O)N1CCC[C@H]1C(=O)N[C@@H](Cc1c[nH]cn1)C(=O)N[C@@H](CC(N)=O)C(N)=O)C(C)C)C(C)C [Compound B] (H-FLFHYSKTQKLGKSNVVEELQSPFASQSRGYFLFRPHN-NH2; N-terminus assumed)
- cumulative food intake in mouse DIO (FIGS. 6A, 6B, 7A, 7B) [4]: either not active or weakly active

Molecule: CC(C)C[C@H](NC(=O)[C@H](CCCCN)NC(=O)[C@H](CCC(N)=O)NC(=O)[C@@H](NC(=O)[C@H](CCCCN)NC(=O)[C@H](CO)NC(=O)[C@H](Cc1ccc(O)cc1)NC(=O)[C@H](Cc1c[nH]cn1)NC(=O)[C@H](Cc1ccccc1)NC(=O)[C@H](CC(C)C)NC(=O)[C@@H](N)Cc1ccccc1)[C@@H](C)O)C(=O)NCC(=O)N[C@@H](CCCCN)C(=O)N[C@@H](CO)C(=O)N[C@@H](CC(N)=O)C(=O)N[C@H](C(=O)N[C@H](C(=O)N[C@@H](CCC(=O)O)C(=O)N[C@@H](CCC(=O)O)C(=O)N[C@@H](CC(C)C)C(=O)N[C@@H](CCC(N)=O)C(=O)N[C@@H](CO)C(=O)N1CCC[C@H]1C(=O)N[C@@H](Cc1ccccc1)C(=O)N[C@@H](C)C(=O)N[C@@H](CO)C(=O)N[C@@H](CCC(N)=O)C(=O)N[C@@H](CO)C(=O)N[C@@H](CCCNC(=N)N)C(=O)NCC(=O)N[C@@H](Cc1ccc(O)cc1)C(=O)N[C@@H](Cc1ccccc1)C(=O)N[C@@H](CC(C)C)C(=O)N[C@@H](Cc1ccccc1)C(=O)N[C@@H](Cc1c[nH]cn1)C(=O)N1CCC[C@H]1C(=O)N[C@@H](CCCNC(=N)N)C(=O)N[C@@H](CC(N)=O)C(N)=O)C(C)C)C(C)C [Compound C] (H-FLFHYSKTQKLGKSNVVEELQSPFASQSRGYFLFHPRN-NH2; N-terminus assumed)
- cumulative food intake in mouse DIO (FIGS. 6A, 6B, 7A, 7B) [4]: either not active or weakly active

- remaining at 5 h [3]: 95%
Molecule: CC(C)C[C@H](NC(=O)[C@H](Cc1ccccc1)NC(=O)[C@H](Cc1ccc(O)cc1)NC(=O)CNC(=O)[C@H](CCCNC(=N)N)NC(=O)[C@H](CO)NC(=O)[C@H](CCC(N)=O)NC(=O)[C@H](CO)NC(=O)[C@H](C)NC(=O)[C@H](Cc1ccccc1)NC(=O)[C@H](CO)NC(=O)[C@H](Cc1ccc(O)cc1)NC(=O)[C@H](Cc1c[nH]cn1)NC(=O)[C@H](Cc1ccccc1)NC(=O)[C@H](CC(C)C)NC(=O)[C@@H](N)Cc1ccccc1)C(=O)N[C@@H](Cc1ccccc1)C(=O)N[C@@H](CCCNC(=N)N)C(=O)N1CCC[C@H]1C(=O)N[C@@H](CCCNC(=N)N)C(=O)N[C@@H](CC(N)=O)C(N)=O [Des-(Lys7-Pro23)FN38] (H-FLFHYSFASQSRGYFLFRPRN-NH2; N-terminus assumed)
- Food Intake Inhibition [1]: −26%
- cumulative food intake in mouse DIO (FIGS. 6A, 6B, 7A, 7B) [4]: reduction of cumulative food intake

Molecule: FLFHYSKTQKLGKSNVVEELQSPFASQSRGYFLFR(beta turn mimic B)RN-NH2 (FLFHYSKTQKLGKSNVVEELQSPFASQSRGYFLFR[beta turn mimic B]RN-NH2; reading uncertain) [Compound A]
- cumulative food intake in mouse DIO (FIGS. 6A, 6B, 7A, 7B) [4]: either not active or weakly active
